Where two headings read alike, the source gives them in different places.
Key:
[1] = test system: acid phosphatase-expressing Candida boidinii; format: cell-based; details: 8 hours culturing after addition
Experimental: Candida boidinii was transformed and acid phosphatase-expressing microorganisms were produced based on a method described in a known document (Regulation and evaluation of five methanol-inducible promoters in the methylotrophic yeast Candida boidinii, H. Yurimoto et al., Biochimica et Biophysica Acta, 1493, 2000, pp. 56-63). The acid phosphatase-expressing microorganisms were inoculated using a platinum loop into BMGY broth, and were shake-cultured at 200 rpm at 30° C. for 15 hours. Then, the thus-obtained broth was resuspended in 125-ml BMGY broth to a final OD of 0.1 OD/ml. Further, the resuspended broth was continued to be shake-cultured at 1100 rpm at 30° C. for about 17 hours until OD was 2 to 5. When OD was 2 to 5, methanol was added to a concentration of 2 v/v %, followed by culturing at 1100 rpm at 30° C. for 2 hours.
Two hours later, the surfactant described in Table 3 was added to the broth in the weight described in Table 3, and the broth was cultured at 1100 rpm at 30° C. for 8 hours. Eight hours later, the broth was sampled for measuring the optical density (optical density at the end of culturing), and was subjected to centrifugation using a centrifuge to separate bacteria and the supernatant from the broth. Then, the supernatant and the bacteria were collected.
The optical density of the broth containing the microorganisms collected by sampling was measured in a quartz cell (light path of 1 cm) using a spectrophotometer (UV-1700, Shimadzu Corporation).
The broth was centrifuged at 1500 rpm at 4° C. for 5 minutes, and the supernatant was discarded. The precipitate was resuspended in a saline solution in an amount equal to the amount of the sample solution, and was diluted in the saline solution to obtain an appropriate absorbance (0.1 to 0.8). Then, the absorbance at 600 nm was measured. The optical density of the broth was calculated using the following mathematical formula (1).
Broth optical density(OD)=(Absorbance of diluted broth at 600 nm)×dilution factor of broth (Mathematical formula 1)

physchem = details: pKa of the ionizable group in water at 25° C., two values where two ionizable groups
Experimental: (§1) The pKa of the ionizable group in water is a value determined at 25° C.

[2] = pKa of the ionizable group of the surfactant in water; details: two values where two ionizable groups
Experimental: as §1

[3] = surfactant 0.03 wt % of broth, Examples 24, 27-33

| Molecule | Optical density (OD) of broth at the end of culturing [1, 3] [OD] | also measured |
| --- | --- | --- |
| CCCCCCCCCCCCNCCC(=O)O | 6.0 | Optical density (OD) of broth at the end of culturing ([1]; surfactant 0.003 wt % of broth, Example 23): 5.1 OD; Optical density (OD) of broth at the end of culturing ([1]; surfactant 0.3 wt % of broth, Example 25): 2.7 OD; Optical density (OD) of broth at the end of culturing ([1]; surfactant 3 wt % of broth, Example 26): 2.7 OD |
| CCCCCCCCCCCC[N+](C)(C)C.[Cl-] [Surfactant (A2-1), lauryl trimethyl ammonium chloride] | 3.94 | pKa (physchem): 14 |
| CCCCCCCCCCCC[N+](C)(C)CCCS(=O)(=O)O.[OH-] [Surfactant (A3-3), dodecyldimethyl(3-sulfopropyl)ammonium hydroxide] | 8.07 |  |
| CCCCCCCCCCCCCCCCOP(=O)([O-])OCC[N+](C)(C)C [Surfactant (A3-4), miltefosine, reference compound] | 7.91 |  |
| CCCCCCCCCCCC[N+](C)(C)CC(=O)[O-] [Surfactant (A3-5), betaine lauryldimethylaminoacetate] | 7.33 |  |
| sodium (2-dodecylamino)ethanesulfonate [Surfactant (A3-1)] | 5.7 |  |
| sodium polyoxyethylene (average 2.5 mol adduct) lauryl ether sulfate [Surfactant (A1-1)] | 5.77 | pKa of the ionizable group in water at 25° C. [2]: 2.0 |
| sodium polyoxyethylene (average 3 mol adduct) lauryl ether acetate [Surfactant (A1-2)] | 5.68 | pKa of the ionizable group in water at 25° C. [2]: 3.6 |

From patent US20200032313A1 (SANYO CHEMICAL INDUSTRIES, LTD., priority 2017, published 2020)
